Laboratory results: patent US20180245061A1, “Modified Heterocyclase” (THE UNIVERSITY COURT OF THE UNIVERSITY OF ABERDEEN, priority 2014, published 2018)

Experiments:
[1] = molecular target: Lyngbya sp. LynD heterocyclase (SEQ ID NO: 1) variant R427E; experiment: ITC nucleotide binding (ATP/AMP) to LynD R427E; parameters: species or system Lyngbya sp. PCC 8106; settings: 20° C., pH 7.4, 5 mM MgCl2
Procedure: (§1) Codon optimized full-length LynD (Lyngbya sp. PCC 8106) with an N-terminal TEV protease-cleavable His6-tag was purchased from DNA2.0 in the pJexpress411 plasmid. The protein was expressed in Escherichia coli BL21 (DE3) grown on auto-induction medium {Studier, 2005, Protein expression and purification, 41, 207-234} for 48 h at 20° C. Cells were harvested by centrifugation at 4,000×g, 4° C. for 15 min and re-suspended in lysis buffer (500 mM NaCl, 20 mM Tris pH 8.0, 20 mM imidazole and 3 mM β-mercaptoethanol (BME)) with the addition of complete EDTA-free protease inhibitor tablets (Roche) and 0.4 mg DNase g^−1 wet cells (Sigma). Cells were lysed by passage through a cell disruptor at 30 kPSI (Constant Systems Ltd) and the lysate was cleared by centrifugation at 40,000×g, 4° C. for 20 min. The cleared lysate was applied to a Nickel Sepharose 6 Fast Flow (GE Healthcare) column pre-washed with lysis buffer and protein eluted with 250 mM imidazole. The protein was then passed over a desalting column (Desalt 16/10, GE Healthcare) in 100 mM NaCl, 20 mM Tris pH 8.0, 20 mM imidazole, 3 mM BME. Tobacco etch virus (TEV) protease was added to the protein at a mass-to-mass ratio of 1:10 and the protein digested for 2 h at 20° C. to remove the Hiss-tag. However, removal of the Hiss-tag was not essential for activity and so less vigorous methods for purification may also be used. […]

[2] = molecular target: Lyngbya sp. LynD heterocyclase (SEQ ID NO: 1) variant K409E; experiment: ITC nucleotide binding (ATP/AMP) to LynD K409E; parameters: species or system Lyngbya sp. PCC 8106; settings: 20° C., pH 7.4, 5 mM MgCl2
Procedure: as §1

[3] = molecular target: Lyngbya sp. LynD heterocyclase (SEQ ID NO: 1) variant R636E; experiment: ITC nucleotide binding (ATP/AMP) to LynD R636E; parameters: species or system Lyngbya sp. PCC 8106; settings: 20° C., pH 7.4, 5 mM MgCl2
Procedure: as §1

[4] = molecular target: Lyngbya sp. LynD heterocyclase (SEQ ID NO: 1) variant K409A; experiment: ITC nucleotide binding (ATP/AMP) to LynD K409A; parameters: species or system Lyngbya sp. PCC 8106; settings: 20° C., pH 7.4, 5 mM MgCl2
Procedure: as §1

[5] = molecular target: Lyngbya sp. LynD heterocyclase (SEQ ID NO: 1) variant E423R; experiment: ITC nucleotide binding (ATP/AMP) to LynD E423R; parameters: species or system Lyngbya sp. PCC 8106; settings: 20° C., pH 7.4, 5 mM MgCl2
Procedure: as §1

[6] = molecular target: Lyngbya sp. LynD heterocyclase, wild type, SEQ ID NO: 1; experiment: ITC nucleotide binding (ATP/AMP) to LynD; parameters: species or system Lyngbya sp. PCC 8106; settings: 20° C., pH 7.4, 5 mM MgCl2, one-site model, stoichiometry set to 1, read-out: Nucleotide KD (ATP)
Procedure: as §1

ITACITACAYDGE = experiment: Heterocyclization of leaderless substrate peptide ITACITACAYDGE by fused-MicD/PatD enzymes (LC-ESI-MS, MALDI-TOF-MS, HPLC-ESI-MS); type: biochemical; settings: 20-30 μM enzyme, 100-110 μM peptide, 5 mM ATP, 5 mM MgCl2, 27° C., 16 h
Procedure: The Reaction was performed in 100 mM Tris pH 8.0 supplemented with 150 mM NaCl, 5 mM ATP and 5 mM MgCl2 and contained 20 μM enzyme and 100 μM peptide. The mixture was incubated at 27° C. for 16 h. The unprocessed substrate has a molecular weight of 1329.5 Da.
Reaction was performed in 50 mM Bicine pH 9.0 supplemented with 150 mM NaCl, 5 mM ATP and 5 mM MgCl2 and contained 30 μM enzyme and 110 μM peptide. The mixture was incubated at 27° C. for 16 h. The unprocessed substrate has a molecular weight of 1219.5 Da.
Each reaction contained 100 mM Tris pH 8.0, 150 mM NaCl, 5 mM ATP and 5 mM MgCl2, 20 μM of the respective enzyme and 100 μM substrate peptide, and was incubated at 27° C. for 16 h. The unprocessed substrate has a molecular weight of 1329.5 Da.
Reaction was performed in 50 mM Bicine pH 9.0 supplemented with 150 mM NaCl, 5 mM ATP and 5 mM MgCl2 and contained 30 μM enzyme and 110 μM peptide. The mixture was incubated at 27° C. for 16 h. The unprocessed substrate has a molecular weight of 1329.5 Da.
Only 1 peak (9.254 min) indicates the reaction product is only one species. […] Multiple peaks of low intensity compared with m/z=1258.5 can be attributed to noise. Product was purified from the enzyme and ATP using size exclusion chromatography (Superdex 30, GE Healthcare) and exchanged into 50 mM Bicine pH 9.0, 500 mM NaCl and 5% DMSO.

heterocyclized species produced from ITACITACAYDGE (ITACITACAYDGE)	heterocyclized species produced from ITACITACAYDGE (ITACITACAYDGE; listed as MicD-Q21-9G)	Molecule	Nucleotide KD (ATP) [1]	Nucleotide KD (ATP) [2]	Nucleotide KD (ATP) [3]	Nucleotide KD (ATP) [4]	Nucleotide KD (ATP) [5]	Kd [6]
		Nc1ncnc2c1ncn2[C@@H]1O[C@H](COP(=O)(O)OP(=O)(O)OP(=O)(O)O)[C@@H](O)[C@H]1O [ATP]	no binding	no binding	no binding	no binding	no binding	50.2 µM
no effect on heterocyclization		MicD-R16-GLEAS-5GA: fused-MicD: leader from R16 extended by GLEAS prior to the GA linker (SEQ ID NO: 43) (protein, Modified heterocyclase MicroD_R16_GLEAS_5GA) MSHHHHHHDYDENLYFQGSRLTAGQLSSQLAELSEEALGDAGLEASGAGAGAGAGAKLMQSTPLLQIQPHFHVEVIEPKQVYLLGEQANYALTGQLYCQILPLLDGQHSREQIVEKLDGEVPSEYIDYVLDRLAEKGYLTEAAPELSSEVAAFWSELGIAPPVAAEALRQSVTLTPVGNISEVTVAALTTALRDIGISVQTPTEAGSPTALNVVLTDDYLQPELAKINKQALESQQTWLLVKPVGSVLWLGPVFVPGKTGCWDCLAHRLRGNREVEASVLQQKQAQQQRNGQSGSVIGCLPTARATLPSTLQTGLQFAATEIAKWIVKHHVKATAPGTVFFPTLDGKIITFNHTVIDLKSHVLVRRSQCPSCGDRQILHRQGFEPVKLVSRRKHFTHDGGHRAFTPEQTVQKYQHLVSPITGVVTELVRLTDPANPLVHTYKAGHAFGSATTLRGLRNTLKYKSSGKGKTDIQSRASGLCEAIERYSGIFQGDEPRKRATLAELGDLALHPESLLYFSNTQYANREELNAQGSAAAYRWIPNRFDVSQAIDWTPVWSLTEQKHKYVPTAFCYYGYPLPEEQRFCKADSNGNAAGNTLEEAILQGFLELVERDSIAMWWYNRIRRPAVDLSTFDEPYFVDLQQFYQQQNRELWVLDVTADLGIPAFAGFSRRTVGTSERISIGFGAHLDPTIAILRALTEVSQVGLELDKIPDDKLDGESKDWMLNVTVENHPWLAPDPSVPMKTASDYPKRWSDDIHTDVMNCVKTAQTAGLEVMVLDQTRPDIGLNVVKVIIPGMRTFWTRFGQGRLYDIPVKLGWLDAPLAEEELNQTNIPF						
4	only a single four heterocycle species	MicD-Q21-9GA: fused-MicD: leader from Q21, 9 GA repeats linker, KL, MicD (SEQ ID NO: 41) (protein, Modified heterocyclase MicroD_Q21_9GA) MSHHHHHHDYDENLYFQGSQLSSQLAELSEEALGDAGAGAGAGAGAGAGAGAGAKLMQSTPLLQIQPHFHVEVIEPKQVYLLGEQANYALTGQLYCQILPLLDGQHSREQIVEKLDGEVPSEYIDYVLDRLAEKGYLTEAAPELSSEVAAFWSELGIAPPVAAEALRQSVTLTPVGNISEVTVAALTTALRDIGISVQTPTEAGSPTALNVVLTDDYLQPELAKINKQALESQQTWLLVKPVGSVLWLGPVFVPGKTGCWDCLAHRLRGNREVEASVLQQKQAQQQRNGQSGSVIGCLPTARATLPSTLQTGLQFAATEIAKWIVKHHVKATAPGTVFFPTLDGKIITFNHTVIDLKSHVLVRRSQCPSCGDRQILHRQGFEPVKLVSRRKHFTHDGGHRAFTPEQTVQKYQHLVSPITGVVTELVRLTDPANPLVHTYKAGHAFGSATTLRGLRNTLKYKSSGKGKTDIQSRASGLCEAIERYSGIFQGDEPRKRATLAELGDLALHPESLLYFSNTQYANREELNAQGSAAAYRWIPNRFDVSQAIDWTPVWSLTEQKHKYVPTAFCYYGYPLPEEQRFCKADSNGNAAGNTLEEAILQGFLELVERDSIAMWWYNRIRRPAVDLSTFDEPYFVDLQQFYQQQNRELWVLDVTADLGIPAFAGFSRRTVGTSERISIGFGAHLDPTIAILRALTEVSQVGLELDKIPDDKLDGESKDWMLNVTVENHPWLAPDPSVPMKTASDYPKRWSDDIHTDVMNCVKTAQTAGLEVMVLDQTRPDIGLNVVKVIIPGMRTFWTRFGQGRLYDIPVKLGWLDAPLAEEELNQTNIPF						
